Measurements from US20120276634A1, “SOMATIC EMBRYOGENESIS AND EMBRYO HARVESTING AND METHOD AND APPARATUS FOR PREPARING PLANT EMBRYOS FOR PLANT PRODUCTION” (ArborGen Inc., priority 2005, published 2012).

Tests used:
[1] = tested on: loblolly pine embryogenic cell lines (J and K); assay: Effect of brassinolide in post cryostorage recovery medium on tissue production; assay type: cell-based; conditions: 0.1 μM in high casein Mi3
Source text: This experiment addresses whether brassinolide in the post-cryogenic storage bulk up medium has a positive effect on tissue recovery and growth enabling faster tissue multiplication and bulk up; and whether there is a cell-line-by-treatment (with or without brassinolide) interaction that can be exploited to enable genotype screening to optimize the best combination for each cell line in terms of both tissue growth and subsequent somatic embryo production. Two post-cryostrorage recovery (bulk up) media treatments were tested: Treatment #1: Mi3 medium (Tables 1 and 2) with high (2.0 g/liter) casein (the improved medium) Treatment #2: The same high casein Mi3 with addition of 0.1 μM Brassinolide Five J cell lines and five K lines were tested. For each cell line, 4 vials (2 post-cryo recovery media×2 replications) were retrieved from cryostorage. Recovered tissue from each vial was transferred to their respective fresh medium at 2 week intervals using a raft transfer method. Weight data was recorded for tissue derived from each vial at the 6th week after cryo-retrieval. At the 6th week, tissues from both reps of each treatment were pooled and maintained on their respective maintenance medium using a tissue dispersion method: 200 mg per sample in 1 ml liquid Mi3 medium dispersed by agitation and poured onto each culture plate. A total of 800 mg of tissue from each cell line×post-cryo media combination were plated on embryo development medium (4 reps of 200 mg/plate) to test embryo production capacity. Total tissue weight at each subculture was recorded to calculate the potential of each treatment for tissue bulk up and embryo production. Harvestable somatic embryos from each plate were recorded at 9 weeks of incubation on MSG embryo development medium (Tables 1 and 2). Embryo production data was analyzed separately for the J and K cell lines using PROCGLM procedure of SAS. Embryo production potential for each treatment was calculated by multiplying embryo production data by the total potential tissue produced in each cell line and treatment.

[2] = tested on: loblolly pine embryogenic cell lines (J and K); assay: Effect of brassinolide in post cryostorage recovery medium on embryo production and embryo production potential; assay type: cell-based; conditions: 0.1 μM in high casein Mi3
Experimental: Five J cell lines and five K lines were tested. For each cell line, 4 vials (2 post-cryo recovery media×2 replications) were retrieved from cryostorage. Recovered tissue from each vial was transferred to their respective fresh medium at 2 week intervals using a raft transfer method. Weight data was recorded for tissue derived from each vial at the 6th week after cryo-retrieval. At the 6th week, tissues from both reps of each treatment were pooled and maintained on their respective maintenance medium using a tissue dispersion method: 200 mg per sample in 1 ml liquid Mi3 medium dispersed by agitation and poured onto each culture plate. A total of 800 mg of tissue from each cell line×post-cryo media combination were plated on embryo development medium (4 reps of 200 mg/plate) to test embryo production capacity. Total tissue weight at each subculture was recorded to calculate the potential of each treatment for tissue bulk up and embryo production. Harvestable somatic embryos from each plate were recorded at 9 weeks of incubation on MSG embryo development medium (Tables 1 and 2). Embryo production data was analyzed separately for the J and K cell lines using PROCGLM procedure of SAS. Embryo production potential for each treatment was calculated by multiplying embryo production data by the total potential tissue produced in each cell line and treatment. The effect of brassinolide in the improved Mi3 bulk up medium on subsequent embryo production was tested. […] Since cell line×media treatment interaction was highly significant, data from each line was analyzed separately for each treatment.

With `CC(C)[C@H](C)[C@@H](O)[C@H](O)[C@@H](C)[C@H]1CC[C@H]2[C@@H]3COC(=O)[C@H]4C[C@H](O)[C@H](O)C[C@]4(C)[C@H]3CC[C@]12C` [brassinolide, Brassinolide] the “amount of tissue compared to the improved medium without brassinolide” value ([1]; J lines) was 127%, the “amount of tissue compared to the improved medium without brassinolide” value ([1]; K lines) was 191% and the tissue production ([1]; all 10 cell lines) was “produced highest amount of tissue”. For the same molecule, the increase in growth ([1]; slow-recovering cell lines K10, K11 and J4) was “two to three-fold”, the “embryo production potential compared to the improved Mi3 without brassinolide” value ([2]; J cell lines) was 149% and the “embryo production potential compared to the improved Mi3 without brassinolide” value ([2]; K cell lines) was 136%. The “embryo production potential, higher compared to the control” value ([2]; both J and K lines) was > 35%.
